Converted amounts (≈) assume the structure as drawn. Read-outs that look alike come from different tables or passages of the source. Residues, ends and D or L forms follow the SMILES beside them.
What was measured:
S. aureus CVCC546 = format: cell-based, Staphylococcus aureus; details: repeated three times
Method: The minimum inhibitory concentration (MIC) and minimum bactericidal concentration (MBC) of peptides were determined by the microtiter broth dilution method according to Clinical and Laboratory Standards Institute (CLSI) guidelines. […] PBS was used as the negative control. […] The MBC value was calculated as the lowest concentration of peptides resulting in a 99.9% reduction of the original inoculum. All experiments were repeated three times.

RAW264.7 cells = assay: Cytotoxicity, MTT method; format: cell-based
Method: RAW264.7 cells (2.5 × 10^4 cells/mL, 100 μL) were added into the 96-well plate and cultured at 37 °C in 5% CO2 for 24 h. After removing the medium and washing twice with PBS, 100 μL peptides (1, 2, 4, 8, 16, 32, 64 and 128 μM) were added to each well. PBS was served as the negative control. After incubation for 24 h, 20 μL MTT (5 mg/mL) was added into each well and incubated for another 4 h. Then, the supernatant was removed and 150 μL dimethylsulfoxide (DMSO) was added into the plate and shaken for 10 min. The absorbance of each well was measured at 570 nm and the survival rate of cells was calculated as follows: Survival (%) = [(Abspeptide/ Abscontrol)] × 100, where Abspeptide and Abscontrol present the absorbance of peptide and PBS control, respectively.

in vitro = in vitro ADME
MDR E. coli [1] = assay: Antibacterial activity after incubation in human serum (inhibition assay); format: cell-based, Escherichia coli; details: Supplementary Fig. 2c source data, mean
Method: Serum stability of R7 and its parent-L7 was tested as previously described with minor modifications[46],[53]. […] The samples were incubated at 4 °C for 15 min and centrifuged for 10 min at 12,000 rpm. The supernatants were analyzed by RP-HPLC or inhibition zone method. Moreover, after incubation in serum for 2 h, R7 was analyzed by matrix assisted laser desorption/ionization-time of flight mass spectrometry (MALDI-TOF MS) and high-performance liquid chromatography-mass spectrometry (HPLC-MS), respectively.
Supplementary Figure 2. Serum stability and release of peptides in human serum. a Detection of the peak area change of peptides in serum by RP-HPLC. b The remaining rate of peptides in bovine serum. c The antibacterial activity of peptides against MDR E. coli in serum detected by an inhibition assay. d The MALDI-TOF mass spectrometry of R7 after incubation in bovine serum for 2 h. The experiments were repeated three times. Data in a and d is representative of three biological replicates.
The results are given as the mean ± SD of three independent experiments in b and c. Different lower-case letters indicate a significant difference between the two groups (p<0.05).
(1 picture or pasted object on this page, not shown here)

MDR E. coli CVCC195 [2] = assay: Serum cytokines (TNF-α, IL-6, IL-1β, IL-10; ELISA) in E. coli-challenged mice; format: in vivo, mouse; set-up: unit not given beside the values; details: Fig. 5c-f source data, peptide + E. coli challenged mice, mean
Method: (§1) After E. coli or LPS challenge, the mice were sacrificed at 12 h and 24 h, respectively, and the sera were collected to detect inflammatory cytokines (such as tumor necrosis factor-α (TNF-α), interleukin-6 (IL-6), interleukin-1β (IL-1β), and interleukin-10 (IL-10)) using the enzyme linked immunosorbent assay (ELISA) kits. To evaluate the specific activity of intestinal alkaline phosphatase (IAP), a 2 cm segment of duodenum was rapidly intercepted from the mice and homogenized; the IAP levels in the supernatant were detected by ELISA. In addition, the lungs were collected from the mice infected by E. coli after 12 and 24 h, respectively and were homogenized in sterile PBS for the bacterial counts assay.

MDR E. coli CVCC195 [3] = assay: Intestinal alkaline phosphatase (IAP) activity in duodenum, E. coli-challenged mice; format: in vivo, mouse; details: for IAP levels in mice: Fig. 5g source data, peptide + E. coli, mean
Method: as §1

LPS [4] = assay: Mouse survival, preventive treatment before lethal LPS challenge; format: in vivo; set-up: key to survival of mice, single-animal event: 1 represents a mouse death; 0 represents no death; details: for survival of mice, single-animal event: Fig. 7a source data, LPS challenge
Method: A sepsis mouse model established in our laboratory was used to evaluate the prevention effect of peptides. […] The survival rate of mice was recorded for 7 days. The mice injected with saline were used as negative control.

LPS [5] = assay: Serum cytokines (TNF-α, IL-6, IL-1β, IL-10; ELISA) in LPS-challenged mice; format: in vivo, mouse; details: LPS-challenged mice pre-treated with 7 μmol/kg, range over sampling times (12 h, 24 h)
Method: as §1

LPS [6] = assay: Intestinal alkaline phosphatase (IAP) activity in duodenum, LPS-challenged mice; format: in vivo, mouse; set-up: IAP levels in mice: unit not given beside the values; details: for IAP levels in mice: Fig. 7f source data, peptide + LPS, mean
Method: as §1

MDR E. coli [7] = format: in vivo, mouse; set-up: key to therapeutic efficacy, survival, single-animal event: 1 represents a mouse death; 0 represents no death; details: for therapeutic efficacy, survival, single-animal event: Supplementary Fig. 3a source data, MDR E. coli challenge, one cell per mouse
Method: Supplementary Figure 3. Therapeutic eﬀicacy of cleavable chimeric peptide R7 in the mice
challenged with MDR E. coli or LPS After the intraperitoneal injection with MDR E. coli (a) or LPS
(b) at a concentration of LD100, the mice were treated with 7 μmol/kg R7 at 0.5 h and 8 h, respectively.
The mouse survival was recorded for 7 d. The mice injected with MDR E. coli/LPS or saline were used

**Q.** Which MBC (S. aureus CVCC546; lowest concentration giving 99.9% reduction of the inoculum) does the source give for `CSCC[C@H](NC(=O)[C@H](CCCNC(=N)N)NC(=O)[C@H](Cc1c[nH]c2ccccc12)NC(=O)[C@H](C)NC(=O)[C@H](Cc1c[nH]c2ccccc12)NC(=O)[C@H](CCCNC(=N)N)NC(=O)[C@H](Cc1c[nH]c2ccccc12)NC(=O)[C@H](C)NC(=O)[C@H](CCCCN)NC(=O)[C@H](Cc1ccccc1)NC(=O)[C@H](CCCNC(=N)N)NC(=O)[C@H](CCCNC(=N)N)NC(=O)[C@H](CCCCN)NC(=O)[C@H](CCCNC(=N)N)NC(=O)[C@H](CCCCN)NC(=O)[C@H](Cc1ccccc1)NC(=O)[C@H](Cc1ccccc1)NC(=O)[C@H](CO)NC(=O)[C@H](C)NC(=O)[C@H](CCCNC(=N)N)NC(=O)[C@@H](NC(=O)[C@H](CCCCN)NC(=O)[C@H](Cc1c[nH]c2ccccc12)NC(=O)[C@H](CCCNC(=N)N)NC(=O)CNC(=O)[C@H](CCC(N)=O)NC(=O)[C@@H](NC(=O)[C@@H](N)CCCNC(=N)N)C(C)C)C(C)C)C(=O)N[C@@H](CCCCN)C(=O)N[C@@H](CCCCN)C(=O)N[C@@H](CC(C)C)C(=O)N[C@@H](C)C(=O)N[C@@H](C)C(=O)N1CCC[C@H]1C(=O)N[C@@H](CO)C(=O)O` [R7] (H-RVQGRWKVRASFFKRKRRFKAWRWAWRMKKLAAPS-OH) here?
**A.** The MBC was 2.26 µM (≈ 10.1 µg/mL).

**Q.** What about the MIC (S. aureus CVCC546; microtiter broth dilution, 10^5 CFU/mL, 37 °C, 16 ~ 18 h) of the same compound?
**A.** Its MIC is 2.26 µM (≈ 10.1 µg/mL).

**Q.** And the “RAW 264.7 cell survival” value (RAW264.7 cells; 128 μM)?
**A.** The value was 58.2%.

**Q.** What about the cytotoxicity (RAW264.7 cells; low concentration (0 ~ 32 μM)) of the same compound?
**A.** The cytotoxicity was “no hemolysis and cytotoxicity”.

**Q.** What about the “degradation in human serum” value (in vitro; RP-HPLC (Supplementary Fig. 2)) of the same compound?
**A.** The value was “almost identical to those in mouse serum”.

**Q.** And the remaining at 0.5 h, 0.5 mM (in vitro; Supplementary Fig. 2b source data, human serum, 0.5 h, RP-HPLC, mean, read-out: remaining rate in human serum)?
**A.** The remaining at 0.5 h, 0.5 mM was 58.6%.

**Q.** What about the remaining at 1 h, 0.5 mM (in vitro; Supplementary Fig. 2b source data, human serum, 1 h, RP-HPLC, mean, read-out: remaining rate in human serum) of the same compound?
**A.** Its remaining at 1 h, 0.5 mM is 51.9%.

**Q.** What about the remaining at 2 h, 0.5 mM (in vitro; Supplementary Fig. 2b source data, human serum, 2 h, RP-HPLC, mean, read-out: remaining rate in human serum) of the same compound?
**A.** Its remaining at 2 h, 0.5 mM is 45.6%.

**Q.** And the remaining at 4 h, 0.5 mM (in vitro; Supplementary Fig. 2b source data, human serum, 4 h, RP-HPLC, mean, read-out: remaining rate in human serum)?
**A.** Its remaining at 4 h, 0.5 mM is 23%.

**Q.** And the “antibacterial activity against MDR E. coli in human serum detected by an inhibition assay” value (“antibacterial activity … by an inhibition assay” for short) (MDR E. coli [1]; incubation in human serum 0 h)?
**A.** Its value is 0.8933.

**Q.** What about the “antibacterial activity … by an inhibition assay” value (MDR E. coli [1]; incubation in human serum 0.5 h) of the same compound?
**A.** Its value is 0.91.

**Q.** And the “antibacterial activity … by an inhibition assay” value (MDR E. coli [1]; incubation in human serum 1 h)?
**A.** The value was 0.91.

**Q.** And the “antibacterial activity … by an inhibition assay” value (MDR E. coli [1]; incubation in human serum 2 h)?
**A.** The value was 0.8967.

**Q.** And the “antibacterial activity … by an inhibition assay” value (MDR E. coli [1]; incubation in human serum 4 h)?
**A.** The value was 0.9033.

**Q.** What about the “antibacterial activity … by an inhibition assay” value (MDR E. coli [1]; incubation in human serum 8 h) of the same compound?
**A.** The value was 0.8967.

**Q.** And the TNFα (MDR E. coli CVCC195 [2]; 12 h)?
**A.** The TNFα was 51.956.

**Q.** What about the TNFα (MDR E. coli CVCC195 [2]; 24 h) of the same compound?
**A.** The TNFα was 49.098.

**Q.** And the “IAP levels in mice” value (MDR E. coli CVCC195 [3]; 12 h)?
**A.** Its value is 514.632.

**Q.** And the “IAP levels in mice” value (MDR E. coli CVCC195 [3]; 24 h)?
**A.** The value was 541.948.

**Q.** What about the IAP activity (MDR E. coli CVCC195 [3]; duodenum, 12 h after E. coli infection, mice pre-treated with 7 μmol/kg peptide, ELISA) of the same compound?
**A.** The IAP activity was 514.6 U/g.

**Q.** And the “mouse survival at 7 days” value (LPS [4]; 7 μmol/kg i.p. at 0 h, LPS 13.5 mg/kg i.p. at 6 h, five mice/group)?
**A.** The value was 100%.

**Q.** What about the “survival of mice, single-animal event” value (LPS [4]; event at day 2, one cell per mouse) of the same compound?
**A.** The value was 0.

**Q.** What about the “survival of mice, single-animal event” value (LPS [4]; event at day 7, one cell per entry) of the same compound?
**A.** Its value is 0.

**Q.** What about the “serum IL-1β concentration” value (LPS [5]) of the same compound?
**A.** Its value is 16.9 ~ 17.5 pg/mL.

**Q.** What about the “serum IL-6 concentration” value (LPS [5]) of the same compound?
**A.** The value was 92.5 ~ 99.3 pg/mL.

**Q.** What about the “serum IL-10 concentration” value (LPS [5]) of the same compound?
**A.** Its value is 13.9 ~ 14.5 pg/mL.

**Q.** And the “serum TNF-α concentration” value (LPS [5])?
**A.** Its value is 43.1 ~ 46.1 pg/mL.

**Q.** What about the “effect on IAP activity compared to the LPS group” value (LPS [6]; 12 h after LPS challenge) of the same compound?
**A.** The value was “significantly up-regulated”.

**Q.** What about the “effect on IAP activity compared to the LPS group” value (LPS [6]; 24 h after LPS challenge) of the same compound?
**A.** The value was “no significant changes”.

**Q.** And the “IAP levels in mice” value (LPS [6]; 12 h)?
**A.** Its value is 1301.32.

**Q.** And the “IAP levels in mice” value (LPS [6]; 24 h)?
**A.** The value was 927.606.

**Q.** And the “mouse survival, therapeutic treatment” value (MDR E. coli [7]; MDR E. coli at LD100 i.p., then 7 μmol/kg R7 at 0.5 h and 8 h, recorded 7 d)?
**A.** Its value is at most 20%.

**Q.** What about the “therapeutic efficacy, survival, single-animal event” value (shortened to “therapeutic efficacy, survival”) (MDR E. coli [7]; event at day 1) of the same compound?
**A.** The value was 1.

**Q.** And the “therapeutic efficacy, survival” value (MDR E. coli [7]; event at day 2)?
**A.** Its value is 1.

**Q.** And the “therapeutic efficacy, survival” value (MDR E. coli [7]; event at day 3)?
**A.** The value was 1.

**Q.** What about the “therapeutic efficacy, survival” value (MDR E. coli [7]; event at day 5) of the same compound?
**A.** The value was 1.
